Results on three compounds are retold here after paper PMC11469747 (Clinical and Translational Science, 2024).

Data set [1] concerns the target T1, CYP2C8 (Homo sapiens, UniProt P10632).
T1 sequence (P10632 1-490): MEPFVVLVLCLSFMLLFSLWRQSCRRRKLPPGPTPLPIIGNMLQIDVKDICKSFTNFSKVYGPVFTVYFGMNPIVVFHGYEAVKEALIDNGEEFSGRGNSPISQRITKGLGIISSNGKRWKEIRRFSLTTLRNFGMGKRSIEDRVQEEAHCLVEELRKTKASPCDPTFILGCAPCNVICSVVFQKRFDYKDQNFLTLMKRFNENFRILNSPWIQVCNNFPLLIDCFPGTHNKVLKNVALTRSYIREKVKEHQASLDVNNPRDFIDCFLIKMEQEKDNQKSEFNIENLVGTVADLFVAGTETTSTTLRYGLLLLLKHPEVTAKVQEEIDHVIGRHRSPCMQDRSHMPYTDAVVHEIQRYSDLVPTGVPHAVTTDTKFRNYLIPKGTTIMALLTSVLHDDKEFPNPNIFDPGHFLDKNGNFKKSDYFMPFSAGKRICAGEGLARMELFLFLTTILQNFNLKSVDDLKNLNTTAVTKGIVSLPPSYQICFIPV
Briefly: Phase I enzyme determination in HLM with CYP-specific inhibitor quercetin. As to conditions: quercetin 10 μM.

In the next data set the target is T2, CYP1A2 (Homo sapiens, UniProt P05177).
T2 sequence (P05177 1-516): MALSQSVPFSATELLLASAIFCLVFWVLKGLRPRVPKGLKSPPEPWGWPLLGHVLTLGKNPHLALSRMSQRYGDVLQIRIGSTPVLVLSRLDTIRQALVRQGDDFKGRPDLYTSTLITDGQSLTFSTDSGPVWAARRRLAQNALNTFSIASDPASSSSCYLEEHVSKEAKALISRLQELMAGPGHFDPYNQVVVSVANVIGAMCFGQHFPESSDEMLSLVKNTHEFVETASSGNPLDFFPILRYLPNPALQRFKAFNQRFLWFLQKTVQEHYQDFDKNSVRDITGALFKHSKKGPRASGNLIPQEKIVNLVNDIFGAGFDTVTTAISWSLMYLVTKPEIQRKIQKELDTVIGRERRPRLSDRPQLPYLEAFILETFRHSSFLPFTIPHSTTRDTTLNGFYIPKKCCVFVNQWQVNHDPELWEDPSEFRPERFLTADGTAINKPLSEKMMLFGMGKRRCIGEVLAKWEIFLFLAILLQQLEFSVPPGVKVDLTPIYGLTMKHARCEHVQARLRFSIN
Briefly: Inhibitory DDI evaluation, cocktail incubation in HLM. The format is in vitro ADME.

The next data set concerns the target CYP2D6 (Homo sapiens, UniProt P10635). The data set is described as above. The format is in vitro ADME.
Another data set relates to recombinant human UGT1A9. Briefly: Phase II enzyme determination with recombinant human UGT. The format is in vitro ADME. As to conditions: rotundic acid 2.5 μM, UGT1A9 0.25 mg protein/mL, 20 min.
The next data set deals with recombinant human UGT1A6. The description is as above. The format is in vitro ADME. As to conditions: rotundic acid 2.5 μM, UGT1A6 0.25 mg protein/mL, 20 min.
The nature of data set [2]: Metabolic stability study in HLM. The format is in vitro ADME, human. As to conditions: for stability in the negative control assay: without HLM, NADPH regenerating system and UDPGA, up to 120 min, 37°C.
For another data set, the target named is CYP2E1 (Homo sapiens, UniProt P05181). In words: Inhibitory DDI evaluation, cocktail incubation in HLM. Type of data set: in vitro ADME.
Data set [3] deals with T1, CYP2C8. Described as above. Type of data set: in vitro ADME.
The next data set concerns recombinant human UGT1A4. Briefly: Phase II enzyme determination with recombinant human UGT. The format is in vitro ADME. Conditions: rotundic acid 2.5 μM, UGT1A4 0.25 mg protein/mL, 20 min.
Data set [4] deals with CYP1A2, CYP2B6, CYP2C8, CYP2C9, CYP2D6, CYP2E1, CYP3A4/5. Briefly: Inhibitory DDI evaluation, cocktail incubation in HLM, all probe reactions. Conditions: human, pooled human liver microsomes. The format is in vitro ADME. Background: Liver microsomes are a subcellular fraction often used to study metabolism.
For the next data set, the target named is T3, CYP2B6 (Homo sapiens, UniProt P20813).
T3 sequence (P20813 1-491): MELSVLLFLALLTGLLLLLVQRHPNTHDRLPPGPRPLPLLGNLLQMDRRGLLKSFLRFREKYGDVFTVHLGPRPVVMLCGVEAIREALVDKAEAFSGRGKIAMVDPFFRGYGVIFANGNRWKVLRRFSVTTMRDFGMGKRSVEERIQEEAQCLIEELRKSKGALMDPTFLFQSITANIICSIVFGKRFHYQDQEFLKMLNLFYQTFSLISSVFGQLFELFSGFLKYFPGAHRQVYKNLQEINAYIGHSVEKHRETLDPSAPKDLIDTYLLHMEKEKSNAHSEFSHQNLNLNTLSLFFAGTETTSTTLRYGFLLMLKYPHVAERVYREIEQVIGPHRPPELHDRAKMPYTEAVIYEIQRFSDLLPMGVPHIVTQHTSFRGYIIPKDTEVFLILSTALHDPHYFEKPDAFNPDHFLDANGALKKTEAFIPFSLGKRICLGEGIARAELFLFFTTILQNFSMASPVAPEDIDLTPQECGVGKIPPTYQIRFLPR
Briefly: Inhibitory DDI evaluation, cocktail incubation in HLM. Type of data set: in vitro ADME.

The next data set deals with CYP2C9 (Homo sapiens, UniProt P11712). Described as above. The format is in vitro ADME.
The test system of a further data set is recombinant human UGT2B7. In words: Phase II enzyme determination with recombinant human UGT. Type of data set: in vitro ADME. Conditions: rotundic acid 2.5 μM, UGT2B7 0.25 mg protein/mL, 20 min.
The subject of a further data set is recombinant human UGT1A1. The data set is described as above. The format is in vitro ADME. As to conditions: rotundic acid 2.5 μM, UGT1A1 0.25 mg protein/mL, 20 min.
A further data set concerns CYP3A4/5. Briefly: Phase I enzyme determination in HLM with CYP-specific inhibitor ketoconazole. Type of data set: in vitro ADME, human. Conditions: HLM with six CYP-specific inhibitors.
The conditions of data set [5]: cited from earlier work.

Chain of CYP2C9 (P11712 whole entry): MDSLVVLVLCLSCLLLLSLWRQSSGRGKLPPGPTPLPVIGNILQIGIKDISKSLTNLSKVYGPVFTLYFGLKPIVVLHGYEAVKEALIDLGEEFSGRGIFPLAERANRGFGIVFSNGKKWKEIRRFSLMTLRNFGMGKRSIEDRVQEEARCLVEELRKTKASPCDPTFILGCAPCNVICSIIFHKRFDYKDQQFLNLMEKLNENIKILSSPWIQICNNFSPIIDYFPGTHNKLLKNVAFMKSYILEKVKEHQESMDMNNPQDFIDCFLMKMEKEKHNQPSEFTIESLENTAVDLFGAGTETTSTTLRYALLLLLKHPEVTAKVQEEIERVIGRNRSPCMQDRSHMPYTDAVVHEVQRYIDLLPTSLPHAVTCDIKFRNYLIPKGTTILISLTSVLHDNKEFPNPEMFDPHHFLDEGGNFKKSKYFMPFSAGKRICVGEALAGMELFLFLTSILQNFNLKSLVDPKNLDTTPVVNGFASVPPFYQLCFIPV
Chain of CYP2D6 (P10635 whole entry): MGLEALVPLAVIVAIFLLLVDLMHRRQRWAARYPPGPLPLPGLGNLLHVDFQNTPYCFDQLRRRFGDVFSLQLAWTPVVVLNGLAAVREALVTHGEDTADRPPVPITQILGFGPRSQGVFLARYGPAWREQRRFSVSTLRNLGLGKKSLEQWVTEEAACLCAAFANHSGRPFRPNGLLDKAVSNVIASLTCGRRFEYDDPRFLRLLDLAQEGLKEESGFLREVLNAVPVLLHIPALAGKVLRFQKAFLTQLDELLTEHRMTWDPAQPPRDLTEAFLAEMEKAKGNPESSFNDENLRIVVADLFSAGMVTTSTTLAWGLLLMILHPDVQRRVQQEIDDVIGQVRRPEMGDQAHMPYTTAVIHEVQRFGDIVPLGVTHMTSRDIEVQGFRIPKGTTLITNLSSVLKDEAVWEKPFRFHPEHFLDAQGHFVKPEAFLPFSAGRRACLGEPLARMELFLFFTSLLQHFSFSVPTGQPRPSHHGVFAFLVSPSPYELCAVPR
Chain of CYP2E1 (P05181 whole entry): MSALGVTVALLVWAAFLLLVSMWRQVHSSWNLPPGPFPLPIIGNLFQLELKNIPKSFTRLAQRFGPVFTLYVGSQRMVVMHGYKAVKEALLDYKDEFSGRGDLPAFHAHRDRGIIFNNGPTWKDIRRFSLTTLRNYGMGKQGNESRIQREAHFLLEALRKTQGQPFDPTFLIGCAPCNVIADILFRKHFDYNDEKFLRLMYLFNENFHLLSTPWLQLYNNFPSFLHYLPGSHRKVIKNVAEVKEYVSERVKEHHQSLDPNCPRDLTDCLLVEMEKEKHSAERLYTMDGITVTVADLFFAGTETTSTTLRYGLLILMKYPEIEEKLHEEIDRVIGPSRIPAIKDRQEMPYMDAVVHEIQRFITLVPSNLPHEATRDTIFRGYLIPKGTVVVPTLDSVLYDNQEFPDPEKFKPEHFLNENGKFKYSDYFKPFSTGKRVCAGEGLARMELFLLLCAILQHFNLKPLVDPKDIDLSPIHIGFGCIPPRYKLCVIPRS

`O=c1c(O)c(-c2ccc(O)c(O)c2)oc2cc(O)cc(O)c12` [quercetin]: on CYP2C8 [1], the “generation rate of PE + O (1)” value is given as “approximately 45%” and the “generation rate of PE + O (2)” value is “approximately 60%”.
On to `C[C@@H]1CC[C@]2(C(=O)O)CC[C@]3(C)C(=CC[C@@H]4[C@@]5(C)CC[C@H](O)[C@@](C)(CO)[C@@H]5CC[C@]43C)[C@@H]2[C@]1(C)O` [rotundic acid], for which the half-inhibitory concentration (IC50) at CYP1A2, at CYP2D6, against CYP2E1, against CYP2C8 [3], against CYP2B6 and against CYP2C9 was greater than 50 µM in each case. Besides, the “generation of glucuronidated rotundic acid” value was “not detected” in the data set on recombinant human UGT1A9; “not detected” in the data set with recombinant human UGT1A6; “detected” in the data set with recombinant human UGT1A4; “not detected” in the data set on recombinant human UGT2B7; “not detected” in the data set with recombinant human UGT1A1. The “stability in the negative control assay” value in data set [2] is given as “stable”. Further, in data set [2] (~1 μM, HLM, UDPGA absent (UDPGA-)), the “metabolized after incubation for 120 min” value is listed as ~ 50%. In data set [2] (~1 μM, HLM, absence of the NADPH regeneration system (NADPH-)), the “compound remaining after 120 min” value is reported as “approximately 25%”. Besides, the “rotundic acid remained after 120 min” value in [2] (~1 μM, HLM, normal group, under regular conditions) is recorded as “less than 10%”. In addition, the IC50 at 20 min in data set [4] was greater than 50 µM. Besides, the enzymes catalyzing hydroxylation result in the data set with CYP3A4/5 is listed as “almost exclusively catalyzed by CYP3A4/5”.
For the compound `C[C@@H]1CC[C@]2(C(=O)O[C@@H]3O[C@H](CO)[C@@H](O)[C@H](O)[C@H]3O)CC[C@]3(C)C(=CC[C@@H]4[C@@]5(C)CC[C@H](O)[C@@](C)(CO)[C@@H]5CC[C@]43C)[C@@H]2[C@]1(C)O` [pedunculoside], the IC50 against CYP1A2, against CYP2D6, at CYP2E1, on CYP2C8 [3], against CYP2B6 and at CYP2C9 was greater than 50 µM in each case. The “stability in the negative control assay” value in data set [2] is “stable”. The compound further gave an IC50 at 20 min in data set [4] greater than 50 µM. The Cmax in [5] (plasma, after oral administration, converted from ng/mL) was 154 to 768 nM. In addition, the elimination half-life entry in data set [5] (rats, oral or intravenous) is reported as “short”. Moreover, in the data set with CYP3A4/5, the enzymes catalyzing hydroxylation result is “mainly catalyzed by CYP3A4/5 and partly by CYP2C8”.

What is called IC50 is the concentration that gives 50% inhibition. A lower IC50 goes with greater potency in that assay. In general, Cmax refers to the highest concentration seen after dosing.
